The record followed here is ChEMBL document CHEMBL4130457, “Discovery of AZD-2098 and AZD-1678, Two Potent and Bioavailable CCR4 Receptor Antagonists” (ACS Med Chem Lett, 2017).

Active and inactive are the calls of the source. No cut-off for these calls is given here.

In series [1] the target is T1, C-X-C chemokine receptor type 1 (Homo sapiens) (UniProt P25024).
T1 sequence (whole entry): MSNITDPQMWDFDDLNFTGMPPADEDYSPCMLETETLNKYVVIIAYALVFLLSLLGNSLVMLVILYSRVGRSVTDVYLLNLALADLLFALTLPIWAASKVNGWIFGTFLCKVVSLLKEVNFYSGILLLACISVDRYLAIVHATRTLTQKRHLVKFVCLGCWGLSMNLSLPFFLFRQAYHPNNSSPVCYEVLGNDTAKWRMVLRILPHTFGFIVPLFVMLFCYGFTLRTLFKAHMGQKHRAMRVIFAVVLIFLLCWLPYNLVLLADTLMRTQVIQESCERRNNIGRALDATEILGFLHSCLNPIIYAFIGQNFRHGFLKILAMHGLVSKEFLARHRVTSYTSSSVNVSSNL
Description: Antagonist activity at CXCR1 (unknown origin) at 10 uM. The series is classed as functional.

Series [2] has as its target T2, C-X-C chemokine receptor type 2 (Homo sapiens) (UniProt P25025).
T2 sequence (whole entry): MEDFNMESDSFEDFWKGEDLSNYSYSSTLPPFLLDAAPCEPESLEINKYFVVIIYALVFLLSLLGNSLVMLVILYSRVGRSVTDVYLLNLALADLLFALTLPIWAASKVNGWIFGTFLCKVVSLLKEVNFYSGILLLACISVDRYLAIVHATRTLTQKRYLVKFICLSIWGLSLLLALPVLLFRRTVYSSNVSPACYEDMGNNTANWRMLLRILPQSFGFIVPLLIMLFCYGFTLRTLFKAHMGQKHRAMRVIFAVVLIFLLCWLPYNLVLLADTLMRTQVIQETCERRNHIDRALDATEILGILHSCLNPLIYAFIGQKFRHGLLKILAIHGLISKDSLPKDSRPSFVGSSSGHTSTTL
Description: Antagonist activity at CXCR2 (unknown origin) at 10 uM. The class given is functional.

Series [3] in a line: Terminal trough concentration in OVA-induced Brown Norway rat plasma at 7.5 umol/kg, po bid measured 12 hrs post last dose. The class given is ADME, organism-based. To be noted: read-out: Cmin.
Series [4] can be described thus: Volume of distribution at steady state in rat at 9 umol/kg, po or 3 umol/kg, iv. The class given is ADME, organism-based. To be noted: in vivo, read-out: Vdss.
Series [5] can be described thus: Antagonist activity at rat CCR4.
Series [6] has as its target C-C chemokine receptor type 5 (Homo sapiens) (UniProt P51681). Description: Antagonist activity at CCR5 (unknown origin) at 10 uM. The class given is functional.
Series [7] concerns the target T3, C-C chemokine receptor type 1 (Homo sapiens) (UniProt P32246).
T3 sequence (whole entry): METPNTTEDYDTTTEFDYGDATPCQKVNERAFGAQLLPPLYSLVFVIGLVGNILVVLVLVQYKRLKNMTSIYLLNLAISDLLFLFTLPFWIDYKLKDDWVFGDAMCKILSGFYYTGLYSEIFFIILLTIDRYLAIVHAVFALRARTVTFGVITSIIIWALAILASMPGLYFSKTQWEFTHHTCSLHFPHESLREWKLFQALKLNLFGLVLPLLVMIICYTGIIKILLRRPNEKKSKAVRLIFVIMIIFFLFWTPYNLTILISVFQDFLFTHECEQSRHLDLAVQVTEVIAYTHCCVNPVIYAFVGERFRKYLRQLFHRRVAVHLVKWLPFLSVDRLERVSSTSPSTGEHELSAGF
Description: Antagonist activity at CCR1 (unknown origin) at 10 uM. The class given is functional.

Series [8] can be described thus: Half life in dog at 9 umol/kg, po or 3 umol/kg, iv. The class given is ADME, organism-based, Canis lupus familiaris. To be noted: in vivo.
Series [9] is described as follows: Volume of distribution at steady state in dog at 9 umol/kg, po or 3 umol/kg, iv. The series is classed as ADME, organism-based, Canis lupus familiaris. Conditions: in vivo, read-out: Vdss.

Sequence of C-C chemokine receptor type 5 (Homo sapiens) (P51681 whole entry, looked up): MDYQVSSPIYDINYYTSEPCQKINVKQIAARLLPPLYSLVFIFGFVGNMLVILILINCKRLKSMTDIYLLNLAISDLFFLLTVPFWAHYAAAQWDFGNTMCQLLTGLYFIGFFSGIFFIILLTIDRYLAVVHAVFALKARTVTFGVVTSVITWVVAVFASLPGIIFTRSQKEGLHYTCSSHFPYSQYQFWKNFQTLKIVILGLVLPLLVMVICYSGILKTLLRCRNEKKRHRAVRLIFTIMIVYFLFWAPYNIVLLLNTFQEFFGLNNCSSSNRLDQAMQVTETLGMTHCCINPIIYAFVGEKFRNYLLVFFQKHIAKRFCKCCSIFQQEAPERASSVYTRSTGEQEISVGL

`COc1nccnc1NS(=O)(=O)c1cccc(Cl)c1Cl`: the result in [1], in series [2], in series [6] and in series [7] was inactive. In addition, the concentration at 12 h in [3] was determined as 140 nM. In addition, the Vd in series [4] came to 0.2 L/kg; in series [9], 0.1 L/kg. In series [5], this compound displayed a pIC50 of 8. In series [8], the half-life was 1 h.
